{
  "source": "patent US20100099561A1",
  "about": "“HETEROBICYCLIC ALKYLTHIO-BRIDGED ISOXAZOLINES” (E.I. DU PONT DE NEMOURS AND COMPANY, priority 2008, published 2010)",
  "format_in_all_cases": "in vivo",
  "key": {"[1]": {"system": "morningglory (Ipomoea spp.)", "test": "Test A preemergence, morningglory", "details": "0 to 100 scale (0 no effect, 100 complete control)", "summary_of_the_method": "(§1)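 Ratings of 0–100 (0 no effect, 100 complete control) came from visual comparison with untreated controls after roughly ten days in a greenhouse. Plants in loam soil–sand blend were treated with compound in non-phytotoxic solvent plus surfactant, pre- or postemergence (one- to two-leaf stage).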"}, "corn (Zea mays)": {"system": "corn (Zea mays)", "test": "Test A preemergence, corn", "details": "0 to 100 scale (0 no effect, 100 complete control)", "summary_of_the_method": "as §1"}, "[2]": {"system": "cocklebur (Xanthium strumarium)", "test": "Test B preemergence, cocklebur", "details": "scale 0 to 100", "from_the_text": "(§2) Seeds of plant species selected from blackgrass (Alopecurus myosuroides), downy bromegrass (Bromus tectorum), green foxtail (Setaria viridis), Italian ryegrass (Lolium multiflorum), wheat (Triticum aestivum), wild oat (Avena fatua), catchweed bedstraw (Galium aparine), bermudagrass (Cynodon dactylon), Surinam grass (Brachiaria decumbens), cocklebur (Xanthium strumarium), corn (Zea mays), large crabgrass (Digitaria sanguinalis), woolly cupgrass (Eriochloa villosa), giant foxtail (Setaria faberii), goosegrass (Eleusine indica), johnsongrass (Sorghum halepense), kochia (Kochia scoparia), lambsquarters (Chenopodium album), morningglory (Ipomoea coccinea), nightshade (eastern black nightshade, Solanum ptycanthum), yellow nutsedge (Cyperus esculentus), pigweed (Amaranthus retroflexus), ragweed (common ragweed, Ambrosia elatior), soybean (Glycine max), sunflower (common oilseed sunflower, Helianthus annuus), Russian thistle (Salsola kali), and velvetleaf (Abutilon theophrasti) were planted into a blend of loam soil and sand and treated preemergence with test compounds formulated in a non-phytotoxic solvent mixture which included a surfactant. Treated plants and controls were maintained in a greenhouse for 13 to 15 days, after which time all species were compared to controls and visually evaluated. Plant response ratings, summarized in Table B, are based on a scale of 0 to 100 where 0 is no effect and 100 is complete control. A dash (-) response means no test result."}, "[3]": {"system": "downy bromegrass (Bromus tectorum)", "test": "Test B preemergence, downy bromegrass", "details": "scale 0 to 100", "from_the_text": "as §2"}, "[4]": {"system": "velvetleaf (Abutilon theophrasti)", "test": "Test A postemergence, velvetleaf", "details": "0 to 100 scale (0 no effect, 100 complete control)", "summary_of_the_method": "as §1"}, "[5]": {"system": "lambsquarters (Chenopodium album)", "test": "Test B preemergence, lambsquarters", "details": "scale 0 to 100", "from_the_text": "as §2"}, "[6]": {"system": "large crabgrass (Digitaria sanguinalis)", "test": "Test A preemergence, large crabgrass", "details": "0 to 100 scale (0 no effect, 100 complete control)", "summary_of_the_method": "as §1"}, "[7]": {"system": "sunflower (common oilseed sunflower, Helianthus annuus)", "test": "Test B preemergence, sunflower", "details": "Preemergence, scale 0 to 100", "from_the_text": "as §2"}, "[8]": {"system": "Surinam grass (Brachiaria decumbens)", "test": "Test B preemergence, Surinam grass", "details": "Preemergence, scale 0 to 100", "from_the_text": "as §2"}, "[9]": {"system": "giant foxtail (Setaria faberi)", "test": "Test A preemergence, giant foxtail", "details": "0 to 100 scale (0 no effect, 100 complete control)", "summary_of_the_method": "as §1"}, "[10]": {"system": "goosegrass (Eleusine indica)", "test": "Test B preemergence, goosegrass", "details": "scale 0 to 100", "from_the_text": "as §2"}, "[11]": {"system": "morningglory (Ipomoea spp.)", "test": "Test A postemergence, morningglory", "details": "0 to 100 scale (0 no effect, 100 complete control)", "summary_of_the_method": "as §1"}, "[12]": {"system": "barnyardgrass (Echinochloa crus-galli)", "test": "Test A preemergence, barnyardgrass", "details": "0 to 100 scale (0 no effect, 100 complete control)", "summary_of_the_method": "as §1"}, "[13]": {"system": "velvetleaf (Abutilon theophrasti)", "test": "Test B preemergence, velvetleaf", "details": "Preemergence, scale 0 to 100", "from_the_text": "as §2"}, "[14]": {"system": "pigweed (Amaranthus retroflexus)", "test": "Test B preemergence, pigweed", "details": "scale 0 to 100", "from_the_text": "as §2"}, "[15]": {"system": "giant foxtail (Setaria faberi)", "test": "Test A postemergence, giant foxtail", "details": "0 to 100 scale (0 no effect, 100 complete control)", "summary_of_the_method": "as §1"}, "[16]": {"system": "large crabgrass (Digitaria sanguinalis)", "test": "Test A postemergence, large crabgrass", "details": "0 to 100 scale (0 no effect, 100 complete control)", "summary_of_the_method": "as §1"}, "[17]": {"system": "barnyardgrass (Echinochloa crus-galli)", "test": "Test B flooded paddy test, barnyardgrass", "details": "Flood", "summary_of_the_method": "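Rice, umbrella sedge, ducksalad and barnyardgrass at 2-leaf stage; pots flooded to 3 cm, compounds applied into paddy water, depth held throughout. Greenhouse 13 to 15 days, then visual rating vs untreated controls on 0–100 scale (0 no effect, 100 complete control); dash means no test result.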"}, "[18]": {"system": "wheat (Triticum aestivum)", "test": "Test A preemergence, wheat", "details": "0 to 100 scale (0 no effect, 100 complete control)", "summary_of_the_method": "as §1"}, "soybean (Glycine max)": {"system": "soybean (Glycine max)", "test": "Test B preemergence, soybean", "details": "Preemergence, scale 0 to 100", "from_the_text": "as §2"}},
  "data": [
    {"smiles": "CC1(C)CC(S(=O)(=O)Cc2c(C(F)(F)F)nc3n(c2=O)CCCC3)=NO1", "note": "[Compound 8, 3-[[(4,5-dihydro-5,5-dimethyl-3-isoxazolyl)sulfonyl]methyl]-6,7,8,9-tetrahydro-2-(trifluoromethyl)-4H-pyrido[1,2-α]pyrimidin-4-one]", "values": [
      {"measurement": "Plant response rating, Morningglory", "setting": "[1]; 125 g ai/ha", "result": 20},
      {"measurement": "Plant response rating, Morningglory", "setting": "[1]; 500 g ai/ha", "result": 90},
      {"measurement": "Plant response rating, Corn", "setting": "corn (Zea mays); 125 g ai/ha", "result": 0},
      {"measurement": "Plant response rating, Corn", "setting": "corn (Zea mays); 500 g ai/ha", "result": 20},
      {"measurement": "Plant response rating, Cocklebur", "setting": "[2]; 16 g ai/ha", "result": 0},
      {"measurement": "Plant response rating, Cocklebur", "setting": "[2]; 31 g ai/ha", "result": 0},
      {"measurement": "Plant response rating, Cocklebur", "setting": "[2]; 62 g ai/ha", "result": 0},
      {"measurement": "Plant response rating, Cocklebur", "setting": "[2]; 125 g ai/ha", "result": 0},
      {"measurement": "Plant response rating, Bromegrass, Downy", "setting": "[3]; 16 g ai/ha", "result": 0},
      {"measurement": "Plant response rating, Bromegrass, Downy", "setting": "[3]; 31 g ai/ha", "result": 0},
      {"measurement": "Plant response rating, Bromegrass, Downy", "setting": "[3]; 62 g ai/ha", "result": 20},
      {"measurement": "Plant response rating, Bromegrass, Downy", "setting": "[3]; 125 g ai/ha", "result": 40},
      {"measurement": "Plant response rating, Velvetleaf", "setting": "[4]; 125 g ai/ha", "result": 50},
      {"measurement": "Plant response rating, Velvetleaf", "setting": "[4]; 500 g ai/ha", "result": 70},
      {"measurement": "Plant response rating, Lambsquarters", "setting": "[5]; 16 g ai/ha", "result": 55},
      {"measurement": "Plant response rating, Lambsquarters", "setting": "[5]; 31 g ai/ha", "result": 98},
      {"measurement": "Plant response rating, Lambsquarters", "setting": "[5]; 62 g ai/ha", "result": 100},
      {"measurement": "Plant response rating, Lambsquarters", "setting": "[5]; 125 g ai/ha", "result": 100},
      {"measurement": "Plant response rating, Crabgrass, Large", "setting": "[6]; 125 g ai/ha", "result": 90},
      {"measurement": "Plant response rating, Crabgrass, Large", "setting": "[6]; 500 g ai/ha", "result": 100},
      {"measurement": "Plant response rating, Sunflower", "setting": "[7]; 16 g ai/ha", "result": 0},
      {"measurement": "Plant response rating, Sunflower", "setting": "[7]; 31 g ai/ha", "result": 15},
      {"measurement": "Plant response rating, Sunflower", "setting": "[7]; 62 g ai/ha", "result": 40},
      {"measurement": "Plant response rating, Sunflower", "setting": "[7]; 125 g ai/ha", "result": 45},
      {"measurement": "Plant response rating, Surinam Grass", "setting": "[8]; 16 g ai/ha", "result": 65},
      {"measurement": "Plant response rating, Surinam Grass", "setting": "[8]; 31 g ai/ha", "result": 95},
      {"measurement": "Plant response rating, Surinam Grass", "setting": "[8]; 62 g ai/ha", "result": 100},
      {"measurement": "Plant response rating, Surinam Grass", "setting": "[8]; 125 g ai/ha", "result": 100},
      {"measurement": "Plant response rating, Foxtail, Giant", "setting": "[9]; 125 g ai/ha", "result": 100},
      {"measurement": "Plant response rating, Foxtail, Giant", "setting": "[9]; 500 g ai/ha", "result": 100},
      {"measurement": "Plant response rating, Goosegrass", "setting": "[10]; 16 g ai/ha", "result": 98},
      {"measurement": "Plant response rating, Goosegrass", "setting": "[10]; 31 g ai/ha", "result": 98},
      {"measurement": "Plant response rating, Goosegrass", "setting": "[10]; 62 g ai/ha", "result": 100},
      {"measurement": "Plant response rating, Goosegrass", "setting": "[10]; 125 g ai/ha", "result": 100},
      {"measurement": "Plant response rating, Morningglory", "setting": "[11]; 125 g ai/ha", "result": 60},
      {"measurement": "Plant response rating, Morningglory", "setting": "[11]; 500 g ai/ha", "result": 90},
      {"measurement": "Plant response rating, Barnyardgrass", "setting": "[12]; 125 g ai/ha", "result": 90},
      {"measurement": "Plant response rating, Barnyardgrass", "setting": "[12]; 500 g ai/ha", "result": 90},
      {"measurement": "Plant response rating, Velvetleaf", "setting": "[13]; 16 g ai/ha", "result": 0},
      {"measurement": "Plant response rating, Velvetleaf", "setting": "[13]; 31 g ai/ha", "result": 0},
      {"measurement": "Plant response rating, Velvetleaf", "setting": "[13]; 62 g ai/ha", "result": 35},
      {"measurement": "Plant response rating, Velvetleaf", "setting": "[13]; 125 g ai/ha", "result": 45},
      {"measurement": "Plant response rating, Pigweed", "setting": "[14]; 16 g ai/ha", "result": 0},
      {"measurement": "Plant response rating, Pigweed", "setting": "[14]; 31 g ai/ha", "result": 20},
      {"measurement": "Plant response rating, Pigweed", "setting": "[14]; 62 g ai/ha", "result": 95},
      {"measurement": "Plant response rating, Pigweed", "setting": "[14]; 125 g ai/ha", "result": 100},
      {"measurement": "Plant response rating, Foxtail, Giant", "setting": "[15]; 125 g ai/ha", "result": 70},
      {"measurement": "Plant response rating, Foxtail, Giant", "setting": "[15]; 500 g ai/ha", "result": 90},
      {"measurement": "Plant response rating, Crabgrass, Large", "setting": "[16]; 125 g ai/ha", "result": 60},
      {"measurement": "Plant response rating, Crabgrass, Large", "setting": "[16]; 500 g ai/ha", "result": 90},
      {"measurement": "Plant response rating, Barnyardgrass", "setting": "[17]; 62 g ai/ha, scale 0 to 100", "result": 0},
      {"measurement": "Plant response rating, Barnyardgrass", "setting": "[17]; 250 g ai/ha, scale 0 to 100 (0 no effect, 100 complete control)", "result": 0},
      {"measurement": "Plant response rating, Wheat", "setting": "[18]; 125 g ai/ha", "result": 0},
      {"measurement": "Plant response rating, Wheat", "setting": "[18]; 500 g ai/ha", "result": 60},
      {"measurement": "Plant response rating, Soybean", "setting": "soybean (Glycine max); 16 g ai/ha", "result": 0},
      {"measurement": "Plant response rating, Soybean", "setting": "soybean (Glycine max); 31 g ai/ha", "result": 0},
      {"measurement": "Plant response rating, Soybean", "setting": "soybean (Glycine max); 62 g ai/ha", "result": 0},
      {"measurement": "Plant response rating, Soybean", "setting": "soybean (Glycine max); 125 g ai/ha", "result": 0}
    ]}
  ]
}
